Reference: patent US10434077B2, “Glycolic acid and/or D-lactic acid for the treatment of neurodegenerative diseases” (MAX-PLANCK-GESELLSCHAFT ZUR FOERDERUNG DER WISSENSCHAFTEN …, priority 2014, dated 2019)
Entries after “also recorded” stand apart in the source; their conditions may differ. Structures can show the parent of a compound that is named as a salt. Where two headings read alike, the source gives them in different places.

Key:
DJ-1 RNAi HeLa cells [1] = assay: Mitotic rounding pressure of DJ-1 RNAi HeLa cells (AFM microcantilever); format: cell-based, human; conditions: for rescue of the reduced rounding pressure of mitotic DJ-1 RNAi cells: HeLa, substance added to medium, concentration not given; for rescue of the lower pressure phenotype in low or no glucose medium: HeLa kept 2 or more passages in low or no glucose medium before RNAi, measured 1 hour after addition; for rescue of the lower pressure phenotype at 10 mM: RNAi-treated mitotic HeLa cells, 10 mM supplement
Procedure: (§1) HeLa-Kyoto cells stably expressing histone H2B-EGFP and mCherry-CAAX (clone 2B4), their parental cells, and HeLa-Kyoto expressing mouse DJ-1 transgene were used. Also, mouse embryonic fibroblast (MEF) (Pham et al., 2010) cells were used. Cells were maintained in DMEM supplemented with 10% fetal bovine serum (FBS), 2 mM GlutaMAX, 100 unit/ml penicillin, 100 μg/ml streptomycin, plus additional antibiotics for the transgene (0.5 mg/ml Geneticin for H2B-EGFP and mouse DJ-1 BAC transgene; 0.5 pug/ml puromycin for mCherry-CAAX), at 37° C. in a 5% CO2 environment. The DMEM with high glucose (5 g/1) was used unless specifically mentioned (e.g. FIG. 14). For atomic force microscopy (AFM) measurements of mammalian cells, a CO2-independent medium containing 4 mM sodium bicarbonate and 20 mM HEPES Was used. HeLa Cells Were RNAi-transfected with 160 nM endoribonuclease-digested small interfering RNA (MISSION esiRNA, Sigma) using oligofectamine reagent (Invitrogen). Paraquat (PQ^2+) was added 24 hours after RNAI. Cells were assayed after 48 hours from RNAI.
(§2) Cell rounding pressure analysis with microcantilevers Cells were grown on a glass-base dish (FD35, World Precision Instruments) with a silicon spacer, which was prepared from μ-Chamber 12 well (ibidi), in the center. Medium was replaced with the CO2-independent medium, then the dish was mounted on the stage of a light microscope (AxioObserver Z1 or Axiovert200, Zeiss) equipped with a 20× objective (Plan Apochromat, NA=0.80). To measure the force of the mitotic cell, a tipless microcantilever (NSC12/CSC37-B with a nominal spring constant of 0.3 N/m, MikroMasch, Estonia) mounted on a glass block of the AFM head (NanoWizard I or II, JPK instruments, Berlin) was used. Setup and calibration were done before every experiment; see Stewart et al (Stewart at al., 2012) for the details of the procedures. In a quick force measurement illustrated in FIG. 5A, the cantilever was set at […] above the glass dish and moved over the mitotically arrested cells to measure the equilibrium force. Measuring the cellular force and pressure through mitosis was done as described (Stewart at al., 2012, Stewart at al., 2011). Otherwise the cell pressure and volume were measured in a constant-height assay, as illustrated in FIG. 5B: the cantilever was first set at 14 μm height and placed over a metaphase cell to record rounding force. The cantilever was then brought down to 8 μm height at 0.1 μmu/sec, to measure peak and equilibrium forces. The maximal cross-section area of the cell was measured from the DIC or mCherry-CAAX image to calculate cell pressure and volume. Calculation of cell pressure and volume, and the contact area to the Cantilever was done as described (Stewart et al., 2012; Stewart et al., 2011). In every experiment, RNAi penetrance was confirmed by lower pressure of MYH9 RNAI-treated cells (Toyoda at al., 2011).

[2] = system: mitotic MEF cells (wild type and DJ-1 knock-out); assay: Mitotic rounding pressure of mouse embryonic fibroblasts (AFM); format: cell-based; conditions: for rescue of the reduced rounding pressure of mitotic DJ-1-deficient MEFs: DJ-1 knock-out MEFs, concentration not given; for rescue of the lower pressure phenotype at 10 mM: mitotic DJ-1 KO MEF cells, measured after 1 hour; for rescue of the lower pressure phenotype at 10 mM / effect on pressure of mitotic WT MEFs (negative effects on cell mechanics): 10 mM supplement; for effect on pressure of mitotic WT MEFs (negative effects on cell mechanics): wild type MEFs
Procedure: as §1, §2

[3] = system: DJ-1 GLO1 double RNAi-treated cells; assay: Mitotic rounding pressure of DJ-1 GLO1 double RNAi-treated cells (AFM); format: cell-based, human; conditions: both glyoxalases DJ-1 and GLO1 knocked down
Procedure: as §1, with “HeLa Cells Were RNAi-transfected with 160 nM endoribonuclease-digested small interfering RNA (MISSION esiRNA, Sigma) using oligofectamine reagent (Invitrogen). Paraquat (PQ^2+) was added 24 hours after RNAI. Cells were assayed after 48 hours from RNAI.” left out
Cell rounding pressure analysis with microcantilevers Cells were grown on a glass-base dish (FD35, World Precision Instruments) with a silicon spacer, which was prepared from μ-Chamber 12 well (ibidi), in the center. […] Otherwise the cell pressure and volume were measured in a constant-height assay, as illustrated in FIG. 5B: the cantilever was first set at 14 μm height and placed over a metaphase cell to record rounding force. […] The maximal cross-section area of the cell was measured from the DIC or mCherry-CAAX image to calculate cell pressure and volume. […]

DJ-1 RNAi HeLa cells [4] = format: cell-based, human; conditions: for rescue of the circular mitochondrial phenotype: paraquat-treated DJ-1 RNAi HeLa cells, supplements for 24 hours
Procedure: as §1
To film the osmotically challenged HeLa cells, a DeltaVision system (Applied Precision) was used, equipped with an Olympus IX-71 Inverted microscope and a 40× (UPIanApo, NA=1.00) objective. Time-lapse images were acquired at 1-min intervals except during osmotic shock treatment (equal volume of water for hypotonic shock; equal volume of the AFM medium containing 2.86% (w/v) xylose for hypertonic shock). Deconvolved and maximally projected images were analyzed manually on Image.J to annotate the radius and the volume of the round objects (i.e. mitotic cells), assuming that the cells were spherical (Stewart et al., 2011). To image mitochondria of HeLa cells, MitoTracker Red CMXRos was added at 150 nM and fixed with 3% (v/w) paraformaldehyde in PBS, 1 mM MgCl2, and 5 mM EGTA. Chromatin was counter-stained by 1 μg/ml Hoechst33342. They were imaged on the DeltaVision system using a 60× objective (PlanApo N, NA=1.42, Olympus), and deconvolved and maximally projected images were used for the analysis. Due to high background of MitoTracker in the center of the cell, mitochondria in a 15×15 um area in the periphery were manually annotated on Image.J software.

[5] = system: C. elegans ΔΔdjr double mutant and glod-4 single mutant larvae; format: in vivo
Procedure: (Brenner, 1974). […] All mutants were outcrossed at least twice.
Mitochondria staining was performed as previously described. Briefly, MitoTracker Deep Red or CMXROS (M22426, M7512, Life Technologies) were dissolved in DMSO at a concentration of 5 mM and kept at −20° C. as a stock solution. On the day of microscopy worms were incubated in a 1:1000 diluted MitoTracker for 45 min at room temperature. Worms were then paralyzed with 1 mM Levamizol (Sigma-Aldrich), placed on slides covered with a thin layer of NGM medium on top of which the coverslip (22×22 mm, Menzel-Glaser #1) was fixed using nail lack.
Microscopy images from live paralyzed worm larvae stained with MitoTracker were taken using a confocal microscope (LSM510, Zeiss, Germany). Samples were excited using a 514 (MitoTracker CMXRos) or a 647 (MitoTracker Deep Red) nm lasers and two channels, one BP505-550 or LP650 and the BF channel were used to acquire the images. Gain was maintained between 450 and 515 for all samples to ensure the detection of signal intensity differences.

[6] = system: C. elegans larvae (ΔΔdjr, glod-4)
Procedure: (A) The differential expression of djr-1.1, djr-1.2 and glod-4 was tested by RT-PCR in four replicates. […] (B) Length of the worms treated with PQ^2+. Bars and error bars show the mean and SD, respectively. […] Every strain was compared to its control at different PQ^2+ concentrations by two-way ANOVA followed by Tukey's honestly significant differences (HSD) test. (C) Worm larvae treated with PQ or control. Scale bar, 250 μm. (D) survival of the worm larvae treated with 200 μM paraquat and 1 mM of the Indicated supplements. Bars and error bars show the mean and SD, respectively. […] Every strain was compared to its own control by two-way ANOVA followed by Tukey's HSD test. Data were normalized by Freeman-Tukey's double arcsine transformation prior to ANOVA. *p<0.05; **p<0.01; ***p<0.001.
All C. elegans strains were maintained on NGM agar plates seeded with Escherichia coli NA22 at 15° C. […] Mutant strains djr-1.1(tm918), djr-1.2(tm951) and glod4(tm1266) were obtained from National Bioresource Project, Japan. Wild type (N2) and daf-2 mutant strains were obtained from Caenorhabditis Genetics Center, USA. All mutants were outcrossed at least twice. DJ-1 double mutant djr-1.1(tm918), djr-1.2(tm951), abbreviated as ΔΔdjr, was achieved by crossing both single mutants. This strain was then further crossed to daf-2 to generate daf-2; ΔΔdjr triple mutant.

[7] = system: primary mesencephalic dopaminergic neurons from wild type mouse embryos; assay: In vitro survival of primary dopaminergic (TH+) neurons, wild type; format: cell-based; conditions: 3 mM glucose, 10 mM GA, 10 mM DL, 10 mM LL, TH+ cells relative to no supplement
Procedure: (§3) Briefly, brain mesencephalons from E14.5 C57JBL6 or DJ-1 embryos were dissected under the microscope and digested with Trypsin-EDTA (Sigma-Aldrich). The trypsin reaction was stopped by adding the basic medium (BM) containing Neurobasal A medium (Gibco), 1 mg/ml penicillin/streptomycin, 10% (v/v) fetal calf serum (Invitrogen) and 2 mM L-glutamine and cells were mechanically dissociated using a fire-polished Pasteur pipette. Medium was fully replaced by centrifuging for 5 min. at 1200 rpm, aspiring the supernatant and adding 8 ml of the fresh BM to the pellet. […] The same volume of medium containing the different treatment substances was added 4 hours after plating to obtain the following treatment concentrations: control, 3 mM glucose, 10 mM GA, 10 mMDL and 10 mM LL. 24 hours later ⅓ of the medium was replaced with fresh BM. On DIV3 (day-in-vitro-culture 3) half of the medium was replaced with B27 medium containing Neurobasal A medium, 1 mg/ml penicillin/streptomycin, 2 mM L-Glutamine (Sigma-Aldrich) and B-27 supplement (Life Technologies) and on DIV5 all medium was replaced by B27 medium.
(§4) Dopaminergic TH^+ neurons were observed using an inverted fluorescence microscope (Axiovert 200M, Zeiss) under a 10× objective (PlanApo, NA=0.45). The diameter of every well was scanned in two perpendicular directions (i.e. top to bottom and left to right) and total TH^+ neurons were counted for every well.

[8] = system: dopaminergic neurons from DJ-1 knock out mice; assay: In vitro survival of primary dopaminergic (TH+) neurons, DJ-1 knock out; format: cell-based, mouse; conditions: DJ-1 KO/mutant; 3 mM glucose, 10 mM GA, 10 mM DL
Procedure: as §3, §4

[9] = estimated; cited from earlier work
[10] = system: primary dopaminergic neurons from wild-type E14.5 embryos treated with PQ2+; conditions: 12.5 μM PQ2+ for 72 hours, 10 mM supplement
Procedure: Briefly, brain mesencephalons from E14.5 C57JBL6 or DJ-1 embryos were dissected under the microscope and digested with Trypsin-EDTA (Sigma-Aldrich). The trypsin reaction was stopped by adding the basic medium (BM) containing Neurobasal A medium (Gibco), 1 mg/ml penicillin/streptomycin, 10% (v/v) fetal calf serum (Invitrogen) and 2 mM L-glutamine and cells were mechanically dissociated using a fire-polished Pasteur pipette. Medium was fully replaced by centrifuging for 5 min. at 1200 rpm, aspiring the supernatant and adding 8 ml of the fresh BM to the pellet. […] The same volume of medium containing the different treatment substances was added 4 hours after plating to obtain the following treatment concentrations: control, 3 mM glucose, 10 mM GA, 10 mMDL and 10 mM LL. 24 hours later ⅓ of the medium was replaced with fresh BM. […]
as §4

NC(=O)c1ccc(N)nc1 [6-aminonicotinamide, reference compound]
effect on the glucose-mediated rescue of pressure in DJ-1 RNAi cells (DJ-1 RNAi HeLa cells [1]; mitotic HeLa, measured after 1 hour): inhibited

C[C@H](O)C(=O)O [LL, L-(+)-lactic acid, reference compound]
rescue of the reduced rounding pressure of mitotic DJ-1 RNAi cells (DJ-1 RNAi HeLa cells [1]): had no effect | rescue of the reduced rounding pressure of mitotic DJ-1-deficient MEFs [2]: had no effect | rescue of the lower pressure phenotype at 10 mM [2]: but not LL, rescued the lower pressure phenotype | effect on pressure of mitotic WT MEFs (negative effects on cell mechanics) [2]: decreases pressure

O=C(O)CO [GA, 2-hydroxyethanoic acid]
rescue of the lower pressure phenotype in low or no glucose medium (DJ-1 RNAi HeLa cells [1]): rescue of the lower pressure phenotype was observed | rescue of the reduced rounding pressure of mitotic DJ-1 RNAi cells (DJ-1 RNAi HeLa cells [1]): could rescue the reduced pressure | rescue of the lower pressure phenotype at 10 mM (DJ-1 RNAi HeLa cells [1]; measured after 1 hour): rescued the lower pressure phenotype | rescue of the reduced rounding pressure of mitotic DJ-1-deficient MEFs [2]: could rescue the reduced pressure | rescue of the lower pressure phenotype at 10 mM [2]: rescued the lower pressure phenotype | effect on pressure of mitotic WT MEFs (negative effects on cell mechanics) [2]: decreases pressure | rescue of the pressure phenotype in DJ-1 and GLO1 double knock-down cells [3]: could rescue | rescue of the circular mitochondrial phenotype (DJ-1 RNAi HeLa cells [4]): rescued | rescue of the circular mitochondrial phenotype (DJ-1 RNAi HeLa cells [4]; listed as glycolate): rescue mitochondria structure | reversal of circular mitochondria and diminished MitoTracker staining ([5]; paraquat-treated ΔΔdjr double mutant and glod-4 single mutant larvae): reversed | restoration of viability of ΔΔdjr mutant larvae ([6]; in vivo): restored | in vitro survival of dopaminergic (TH+) neurons [7]: stimulated; also recorded: stimulate the survival | in vitro survival of dopaminergic (TH+) neurons ([7]; listed as Glycolate): support viability | survival of dopaminergic neurons from DJ-1 knock out mice [8]: could stimulate neuronal survival; also recorded: stimulate the survival

CC(=O)C(=O)O [pyruvate, 2-oxopropanoic acid salt, reference compound]
rescue of the reduced rounding pressure of mitotic DJ-1 RNAi cells (DJ-1 RNAi HeLa cells [1]): neither pyruvate, which is produced from glucose, nor glutamine, which can enter the Krebs cycle, rescued the DJ-1 pressure phenotype | rescue of the circular mitochondrial phenotype (DJ-1 RNAi HeLa cells [4]): cannot rescue the circular phenotype

OCCOCCO [diethylene glycol]
minimum toxic dose [9]: 0.14 mg glycolic acid per kg of body weight

C[C@@H](O)C(=O)O [DL, D-(−)-lactic acid]
rescue of the lower pressure phenotype in low or no glucose medium (DJ-1 RNAi HeLa cells [1]): rescue of the lower pressure phenotype was observed | rescue of the reduced rounding pressure of mitotic DJ-1 RNAi cells (DJ-1 RNAi HeLa cells [1]): could rescue the reduced pressure | rescue of the lower pressure phenotype at 10 mM (DJ-1 RNAi HeLa cells [1]; measured after 1 hour): rescued the lower pressure phenotype | rescue of the reduced rounding pressure of mitotic DJ-1-deficient MEFs [2]: could rescue the reduced pressure | rescue of the lower pressure phenotype at 10 mM [2]: rescued the lower pressure phenotype | rescue of the pressure phenotype in DJ-1 and GLO1 double knock-down cells [3]: could rescue | rescue of the circular mitochondrial phenotype (DJ-1 RNAi HeLa cells [4]): rescued | rescue of the circular mitochondrial phenotype (DJ-1 RNAi HeLa cells [4]; listed as D-lactate): rescue mitochondria structure | in vitro survival of dopaminergic (TH+) neurons [7]: stimulated; also recorded: stimulate the survival | in vitro survival of dopaminergic (TH+) neurons ([7]; listed as D-lactate): support viability | survival of dopaminergic neurons from DJ-1 knock out mice [8]: could stimulate neuronal survival; also recorded: stimulate the survival | rescue of the toxic effect of paraquat on dopaminergic neurons [10]: significantly rescue the toxic effect of paraquat

C[n+]1ccc(-c2cc[n+](C)cc2)cc1 [paraquat, reference compound]
effect of paraquat on mitochondrial structure (DJ-1 RNAi HeLa cells [4]; low doses of paraquat, DJ-1 RNAi HeLa cells): disrupted mitochondrial structure | effect of paraquat on mitochondria of worm larvae ([5]; reproductive larvae of C. elegans): disrupted mitochondria | effect of paraquat on viability of glod-4 mutant larvae ([6]; glod-4, 200 μM paraquat): not affected | effect of paraquat on viability of ΔΔdjr mutant larvae ([6]; ΔΔdjr, 200 μM paraquat): decreased viability

NC(=O)CC[C@H](N)C(=O)O [glutamine, reference compound]
rescue of the reduced rounding pressure of mitotic DJ-1 RNAi cells (DJ-1 RNAi HeLa cells [1]): neither pyruvate, which is produced from glucose, nor glutamine, which can enter the Krebs cycle, rescued the DJ-1 pressure phenotype
